Measured values reported in patent US11311598B2, “Peptides and analogs for use in the treatment of oral mucositis” (Soligenix, Inc., priority 2013, dated 2022).
Where no end group is shown, it is not given here.

How the values were obtained:
[1] = test system: Gram-positive and Gram-negative infections; settings: mouse, in vivo
cynomolgus monkeys = assay: cynomolgus monkey IV toxicity studies (pilot, GLP 14-day); type: in vivo; settings: for occurrence of acute toxicity (respiratory depression): cynomolgus monkey
Method: Two pilot and 2 definitive repeat-dose toxicity studies were conducted with RIVPA (SEQ ID NO. 5) in mice and cynomolgus monkeys using the intravenous (IV; slow bolus) route of administration. All studies were conducted by LAB Research Inc., Canada.
These resolved within a few minutes without detectable residual effects.
RIVPA (SEQ ID NO. 5) at 20, 80, 160 mg/kg/day was given IV to cynomolgus monkeys for 14 days. […] In all cases, these clinical signs resolved within a few minutes. […] A dose level of 80 mg/kg/day was considered to be the No-Observed-Adverse-Effect-Level (NOAEL) for this study.
Overall, the NOAEL is considered to be 80 mg/kg/day for cynomolgus monkeys since transient clinical signs were limited to a single study and occurred in only 2 instances of the 98 administrations of the drug at this dose level.
The observed respiratory depression occurred at different dose levels in different species, and was not predicted by allometric scaling. In particular, the mouse appeared to be the most sensitive species with acute toxicity occurring rarely at 60 mg/kg (HED: ^˜5 mg/kg) and commonly at 90 mg/kg (HED: ^˜7 mg/kg). In contrast in NHP (cynomologus monkey), acute toxicity occurred occasionally at 160 mg/kg (HED: ^˜50 mg/kg) and consistently at 240 mg/kg (HED: ^˜78 mg/kg).

S. aureus = S. aureus infection studies, single IV RIVPA treatment (Table 2 summary); type: in vivo, mouse; settings: for % Successful Treatments Any Dose Schedule: success = at least 20% increase in survival over saline control
whole blood = assay: ex vivo LPS stimulation of whole blood from Phase 1 subjects; type: cell-based, human; settings: dose range 0.15-2 mg/kg; 4 hours in vitro LPS stimulation of whole blood
Method: In ex vivo investigations using blood samples obtained during the Phase 1 healthy human volunteer study, a number of cytokine and chemokine analytes were quantified after 4 hours of in vitro stimulation of whole blood with LPS. The inter-individual variability in analyte levels was larger than any variation in time or response to RIVPA (SEQ ID NO. 5) or placebo administration and the data were therefore self-normalized using the individual pre-dose analyte level to standardize all responses for each individual subject (the Activity Ratio). RIVPA (SEQ ID NO. 5) effects on the analyte Activity Ratios (ARs) were neither constant throughout time, nor linearly dose responsive.

cynomolgus monkey = assay: cardiovascular (CV)/pulmonary study in cynomolgus monkey; type: in vivo
Source text: In summary, the major toxicological finding was an acute-onset respiratory depression, accompanied by labored breathing, recumbency and transient decreased activity.

MRSA (USA300) = type: in vivo, mouse
Method: Multiple studies with IV administered RIVPA (SEQ ID NO. 5) were conducted in a MRSA bacteremia model. […] In the first study, MRSA (USA300, 7.3 log 10 cfu) was administered via IV injection into the tail vein of female Balb/c mice at time 0. Four hours prior to infection, a single dose of saline or RIVPA (SEQ ID NO. 5) at the indicated dose levels was injected IV into the tail vein. Sub-optimal antibiotic treatment (linezolid, 6.25 mg/kg) was administered once orally immediately after infection. Survival was monitored for 21 days after the infection. In the second study, RIVPA (SEQ ID NO. 5) (IV) or saline (IV) was administered once 4 h prior to infection with MRSA (strain USA300, 7.0 log10 cfu) via the tail vein into female nu/nu mice.

CYP450 enzymes = assay: processing by or inhibition of CYP450 enzymes; type: in vitro ADME
mouse tongue epithelium = assay: prevention of radiation-induced mucositis (25 Gy to the mouse snout); type: in vivo; settings: 25 Gy to mouse snout Day 0; 5 doses of 25 mg/kg IV every second day
Method: RIVPA (SEQ ID NO. 5) and other IDRs modulate the innate defense response to tissue injury, reducing the severity of damage caused by the inflammatory cascade and enhancing resolution of disease. As described above, IDRs can mitigate the response to radiation damage in an oral mucositis model (FIG. 1, FIG. 2). […] Progressive thinning of the mouse tongue was assessed on Days 0, 2, 4, 6, 8, and 10 by histopathological analysis of the number of basal and suprabasal apoptotic, mitotic and total epithelial cells per unit area and per unit length. It is noted that the dose of radiation used (25 Gy) was chosen such that progressive thinning of the tongue epithelium was observed but no overt mucositis occurred.

[2] = test system: S. aureus (Catalog No. 25923, ATCC); assay: S. aureus acute peritoneal infection model, local IP treatment; type: in vivo, mouse; settings: female CD-1 mice, 9.5 mg/kg IP 4 h after infection; 24 h after infection
Method: Intraperitoneal (IP) injection of S. aureus (Catalog No. 25923, ATCC, 6×10^7 cfu) with 5% mucin was administered IP to female CD-1 mice (N=8/group) and RIVPA (SEQ ID NO. 5) (9.5 mg/kg) was injected IP 4 h later. Mice were sacrificed 24 h after infection and peritoneal lavage fluid was assessed for bacterial counts. The results of this study are shown in FIG. 11 (each data point represents the result from an individual mouse—dead mice were given the highest bacterial count of any mouse obtained in the study and are represented as open symbols in the graph).

Substance: RIVPA-NH2 [RIVPA (SEQ ID NO. 5), RIVPA]
- duration of pharmacodynamic effect [1]: up to 5 days
- dose levels with consistent efficacy ([1]; iv): ≥ 25 mg/kg
- HED of acutely toxic dose (cynomolgus monkeys; NHP 160 mg/kg): ~50 mg/kg
- HED of acutely toxic dose (cynomolgus monkeys; NHP 240 mg/kg): ~78 mg/kg
- immune-related organ weights, histopathology, hematology and clinical chemistry (cynomolgus monkeys; NHP 14-day toxicity study): no changes were observed
- clinical signs (cynomolgus monkeys; NHP pilot studies, 90 (1 animal), 180 (both animals) and 220 (1 animal) mg/kg, during and shortly after dosing): mild clinical signs
- T-cell, B-cell or NK-cell counts (cynomolgus monkeys; NHP, after 14 days of intravenous dosing): no effect
- occurrence of acute toxicity (respiratory depression) (cynomolgus monkeys; 160 mg/kg): occasionally
- occurrence of acute toxicity (respiratory depression) (cynomolgus monkeys; 240 mg/kg): consistently
- clinical signs (cynomolgus monkeys; cynomolgus monkeys, 160 mg/kg/day IV for 14 days): Transient decreased activity and partially closed eyes
- toxicity (cynomolgus monkeys; cynomolgus monkeys, 20 and 80 mg/kg/day IV for 14 days): did not result in any evidence of toxicity
- dose dependence of effects (S. aureus; between 1 and 50 mg/kg in mouse): dose dependent
- dose levels consistently demonstrating efficacy (S. aureus; mouse, stand-alone IV): ≥ 25 mg/kg
- % Successful Treatments RIVPA administered 4 h prior to infection (S. aureus; single IV dose 1 mg/kg): 0%
- % Successful Treatments Any Dose Schedule (S. aureus; single IV dose 1 mg/kg): 0%
- % Successful Treatments RIVPA administered 4 h prior to infection (S. aureus; single IV dose 5 mg/kg): 33%
- % Successful Treatments Any Dose Schedule (S. aureus; single IV dose 5 mg/kg): 42%
- % Successful Treatments RIVPA administered 4 h prior to infection (S. aureus; single IV dose 25 mg/kg): 50%
- % Successful Treatments Any Dose Schedule (S. aureus; single IV dose 25 mg/kg): 67%
- % Successful Treatments RIVPA administered 4 h prior to infection (S. aureus; single IV dose 50 mg/kg): 100%
- % Successful Treatments Any Dose Schedule (S. aureus; single IV dose 50 mg/kg): 100%
- anti-inflammatory status (TNF RII, IL-1ra vs TNFα, IL-1β Activity Ratios) (whole blood): evidence of an increase
- clinical signs (cynomolgus monkey; 80 mg/kg, during dosing): transient drooping eye lids and prostration
- clinical signs (cynomolgus monkey; 220 mg/kg): transient, severe clinical signs
- respiratory/cardiovascular effects and mortality (cynomolgus monkey; 220 mg/kg, 1 animal): marked reduction in respiratory rate followed by bradycardia, hypotension and death
- respiratory effects (cynomolgus monkey; 20 or 80 mg/kg): No respiratory effects
- cardiac toxicity or QT prolongation (cynomolgus monkey; nonhuman primates): no cardiac toxicity or QT prolongation
- cardiovascular effects and ECG parameters (cynomolgus monkey; single IV doses of 20 or 80 mg/kg): no cardiovascular effects or changes in electrocardiogram (ECG) parameters
- duration for which the survival benefit is sustained (MRSA (USA300); FIG. 9): at least 21 days
- time after initiation of infection at which administration still confers a survival benefit (MRSA (USA300); MRSA bacteremia model (data not shown)): up to 24 h
- time prior to initiation of infection at which a single dose still confers a survival benefit (MRSA (USA300); depending on dose level (data not shown)): up to 5 days
- survival over the saline control (MRSA (USA300); female Balb/c mice, single dose 50 mg/kg IV 4 h prior to infection, linezolid 6.25 mg/kg oral, 21 days): statistically significant enhanced survival
- inhibition of CYP450 enzymes (CYP450 enzymes): lack
- processing by CYP450 enzymes (CYP450 enzymes): lack
- disease progression (progressive thinning of the mouse tongue) (mouse tongue epithelium): did not have any significant impact
- reduction of bacterial load in peritoneal lavage fluid [2]: over 7 logs
